# What was measured:
# Type in all cases: in vivo
# [1] = system: ducksalad (Heteranthera limosa); assay: Test B flooded paddy test, ducksalad; conditions: 250 g ai/ha, Flood; visual rating after 13 to 15 days; scale 0 to 100, 0 is no effect, 100 is complete control
# Procedure, shortened: (§1)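 Visual ratings, 0 = no effect to 100 = complete control, versus controls after 13 to 15 days in greenhouse. Test compounds were added to paddy water kept 3 cm over the soil surface, on plants at 2-leaf stage.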
# [2] = system: barnyardgrass (Echinochloa crus-galli); assay: Test A preemergence, barnyardgrass; conditions: Preemergence, 0 to 100 scale (0 no effect, 100 complete control)
# Procedure, shortened: (§2)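 Pre- and postemergence greenhouse screen in loam–sand soil. Test chemicals were delivered in a non-phytotoxic solvent with surfactant, preemergence as a directed spray onto seeded soil and postemergence onto 2–10 cm seedlings. Injury was judged by eye after ~10 days on a 0–100 scale.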
# [3] = system: blackgrass (Alopecurus myosuroides); assay: Test A postemergence, blackgrass; conditions: postemergence, 0 to 100 scale, 0 is no effect, 100 is complete control, approximately 10 days
# Procedure, shortened: as §2
# [4] = system: ragweed (common ragweed, Ambrosia elatior); assay: Test A preemergence, ragweed; conditions: Preemergence, 0 to 100 scale (0 no effect, 100 complete control)
# Procedure, shortened: as §2
# [5] = system: barnyardgrass (Echinochloa crus-galli); assay: Test A postemergence, barnyardgrass; conditions: postemergence, 0 to 100 scale, 0 is no effect, 100 is complete control, approximately 10 days
# Procedure, shortened: as §2
# [6] = system: ragweed (common ragweed, Ambrosia elatior); assay: Test A postemergence, ragweed; conditions: postemergence, 0 to 100 scale, 0 is no effect, 100 is complete control, approximately 10 days
# Procedure, shortened: as §2
# [7] = system: galium (catchweed bedstraw, Galium aparine); assay: Test A postemergence, galium; conditions: postemergence, 0 to 100 scale, 0 is no effect, 100 is complete control, approximately 10 days
# Procedure, shortened: as §2
# [8] = system: wheat (Triticum aestivum); assay: Test A postemergence, wheat; conditions: postemergence, 0 to 100 scale, 0 is no effect, 100 is complete control, approximately 10 days
# Procedure, shortened: as §2
# [9] = system: ryegrass, Italian (Italian ryegrass, Lolium multiflorum); assay: Test A postemergence, Italian ryegrass; conditions: postemergence, 0 to 100 scale, 0 is no effect, 100 is complete control, approximately 10 days
# Procedure, shortened: as §2
# [10] = system: pigweed (Amaranthus retroflexus); assay: Test A preemergence, pigweed; conditions: Preemergence, 0 to 100 scale (0 no effect, 100 complete control)
# Procedure, shortened: as §2
# [11] = system: rice (Oryza sativa); assay: Test B flooded paddy test, rice; conditions: 250 g ai/ha, Flood; visual rating after 13 to 15 days; scale 0 to 100, 0 is no effect, 100 is complete control
# Procedure, shortened: as §1
# [12] = system: foxtail, giant (giant foxtail, Setaria faberii); assay: Test A preemergence, giant foxtail; conditions: Preemergence, 0 to 100 scale (0 no effect, 100 complete control)
# Procedure, shortened: as §2
# [13] = system: kochia (Kochia scoparia); assay: Test A preemergence, kochia; conditions: Preemergence, 0 to 100 scale (0 no effect, 100 complete control)
# Procedure, shortened: as §2
# [14] = system: corn (Zea mays); assay: Test A postemergence, corn; conditions: postemergence, 0 to 100 scale, 0 is no effect, 100 is complete control, approximately 10 days
# Procedure, shortened: as §2
# [15] = system: foxtail, giant (giant foxtail, Setaria faberii); assay: Test A postemergence, giant foxtail; conditions: postemergence, 0 to 100 scale, 0 is no effect, 100 is complete control, approximately 10 days
# Procedure, shortened: as §2
# [16] = system: pigweed (Amaranthus retroflexus); assay: Test A postemergence, pigweed; conditions: postemergence, 0 to 100 scale, 0 is no effect, 100 is complete control, approximately 10 days
# Procedure, shortened: as §2
# [17] = system: barnyardgrass (Echinochloa crus-galli); assay: Test B flooded paddy test, barnyardgrass; conditions: 250 g ai/ha, Flood; visual rating after 13 to 15 days; scale 0 to 100, 0 is no effect, 100 is complete control
# Procedure, shortened: as §1
# [18] = system: ryegrass, Italian (Italian ryegrass, Lolium multiflorum); assay: Test A preemergence, Italian ryegrass; conditions: Preemergence, 0 to 100 scale (0 no effect, 100 complete control)
# Procedure, shortened: as §2
# [19] = system: sedge, umbrella (small-flower umbrella sedge, Cyperus difformis); assay: Test B flooded paddy test, umbrella sedge; conditions: 250 g ai/ha, Flood; visual rating after 13 to 15 days; scale 0 to 100, 0 is no effect, 100 is complete control
# Procedure, shortened: as §1
# [20] = system: kochia (Kochia scoparia); assay: Test A postemergence, kochia; conditions: postemergence, 0 to 100 scale, 0 is no effect, 100 is complete control, approximately 10 days
# Procedure, shortened: as §2
Compound,"Plant response rating, Ducksalad [1]","Plant response rating, Barnyardgrass ([2]; 125 g ai/ha)","Plant response rating, Blackgrass ([3]; 125 g ai/ha)","Plant response rating, Ragweed ([4]; 125 g ai/ha)","Plant response rating, Barnyardgrass ([5]; 125 g ai/ha)","Plant response rating, Ragweed ([6]; 125 g ai/ha)","Plant response rating, Galium ([7]; 125 g ai/ha)","Plant response rating, Wheat ([8]; 125 g ai/ha)","Plant response rating, Ryegrass, Italian ([9]; 125 g ai/ha)","Plant response rating, Pigweed ([10]; 125 g ai/ha)","Plant response rating, Rice [11]","Plant response rating, Foxtail, Giant ([12]; 125 g ai/ha)","Plant response rating, Kochia ([13]; 125 g ai/ha)","Plant response rating, Corn ([14]; 125 g ai/ha)","Plant response rating, Foxtail, Giant ([15]; 125 g ai/ha)","Plant response rating, Pigweed ([16]; 125 g ai/ha)","Plant response rating, Barnyardgrass [17]","Plant response rating, Ryegrass, Italian ([18]; 125 g ai/ha)","Plant response rating, Sedge, Umbrella [19]","Plant response rating, Kochia ([20]; 125 g ai/ha)",further results
FC(F)(F)c1ccc(COc2c(Br)cccc2Oc2ncc(Cl)cn2)cc1 [Compound 19],0,0,0,0,0,10,0,0,0,0,0,10,0,10,0,20,0,0,0,10,"Plant response rating, Barnyardgrass ([2]; 500 g ai/ha): 60; Plant response rating, Blackgrass ([3]; 500 g ai/ha): 10; Plant response rating, Ragweed ([4]; 500 g ai/ha): 0; Plant response rating, Barnyardgrass ([5]; 500 g ai/ha): 20; Plant response rating, Ragweed ([6]; 500 g ai/ha): 20; Plant response rating, Galium ([7]; 500 g ai/ha): 30; Plant response rating, Wheat ([8]; 500 g ai/ha): 20; Plant response rating, Ryegrass, Italian ([9]; 500 g ai/ha): 0; Plant response rating, Pigweed ([10]; 500 g ai/ha): 0; Plant response rating, Foxtail, Giant ([12]; 500 g ai/ha): 90; Plant response rating, Kochia ([13]; 500 g ai/ha): 0; Plant response rating, Corn ([14]; 500 g ai/ha): 30; Plant response rating, Foxtail, Giant ([15]; 500 g ai/ha): 20; Plant response rating, Pigweed ([16]; 500 g ai/ha): 100; Plant response rating, Ryegrass, Italian ([18]; 500 g ai/ha): 20; Plant response rating, Kochia ([20]; 500 g ai/ha): 50"
N#Cc1cccc(Oc2ncc(Cl)cn2)c1OCc1ccc(C(F)(F)F)cc1 [Compound 20],0,20,0,0,10,20,30,10,0,30,0,90,0,10,10,90,0,0,0,50,"Plant response rating, Barnyardgrass ([2]; 500 g ai/ha): 30; Plant response rating, Blackgrass ([3]; 500 g ai/ha): 20; Plant response rating, Ragweed ([4]; 500 g ai/ha): 0; Plant response rating, Barnyardgrass ([5]; 500 g ai/ha): 30; Plant response rating, Ragweed ([6]; 500 g ai/ha): 30; Plant response rating, Galium ([7]; 500 g ai/ha): 80; Plant response rating, Wheat ([8]; 500 g ai/ha): 10; Plant response rating, Ryegrass, Italian ([9]; 500 g ai/ha): 20; Plant response rating, Pigweed ([10]; 500 g ai/ha): 100; Plant response rating, Foxtail, Giant ([12]; 500 g ai/ha): 100; Plant response rating, Kochia ([13]; 500 g ai/ha): 50; Plant response rating, Corn ([14]; 500 g ai/ha): 20; Plant response rating, Foxtail, Giant ([15]; 500 g ai/ha): 30; Plant response rating, Pigweed ([16]; 500 g ai/ha): 90; Plant response rating, Ryegrass, Italian ([18]; 500 g ai/ha): 20; Plant response rating, Kochia ([20]; 500 g ai/ha): 100"
N#Cc1cccc(Oc2ncc(Cl)cn2)c1OCc1cccc(Cl)c1 [Compound 21],0,0,0,0,10,10,20,0,0,10,0,40,0,10,10,50,0,0,0,40,"Plant response rating, Barnyardgrass ([2]; 500 g ai/ha): 10; Plant response rating, Blackgrass ([3]; 500 g ai/ha): 20; Plant response rating, Ragweed ([4]; 500 g ai/ha): 0; Plant response rating, Barnyardgrass ([5]; 500 g ai/ha): 20; Plant response rating, Ragweed ([6]; 500 g ai/ha): 20; Plant response rating, Galium ([7]; 500 g ai/ha): 70; Plant response rating, Wheat ([8]; 500 g ai/ha): 10; Plant response rating, Ryegrass, Italian ([9]; 500 g ai/ha): 0; Plant response rating, Pigweed ([10]; 500 g ai/ha): 40; Plant response rating, Foxtail, Giant ([12]; 500 g ai/ha): 100; Plant response rating, Kochia ([13]; 500 g ai/ha): 30; Plant response rating, Corn ([14]; 500 g ai/ha): 20; Plant response rating, Foxtail, Giant ([15]; 500 g ai/ha): 40; Plant response rating, Pigweed ([16]; 500 g ai/ha): 60; Plant response rating, Ryegrass, Italian ([18]; 500 g ai/ha): 10; Plant response rating, Kochia ([20]; 500 g ai/ha): 70"
N#CCCCOc1c(C#N)cccc1Oc1ncc(Cl)cn1 [Compound 22],0,20,0,30,0,10,50,20,0,100,0,90,90,20,10,80,0,0,0,90,"Plant response rating, Barnyardgrass ([2]; 31 g ai/ha): 0; Plant response rating, Blackgrass ([3]; 31 g ai/ha): 0; Plant response rating, Ragweed ([4]; 31 g ai/ha): 10; Plant response rating, Barnyardgrass ([5]; 31 g ai/ha): 0; Plant response rating, Ragweed ([6]; 31 g ai/ha): 0; Plant response rating, Galium ([7]; 31 g ai/ha): 20; Plant response rating, Wheat ([8]; 31 g ai/ha): 0; Plant response rating, Ryegrass, Italian ([9]; 31 g ai/ha): 0; Plant response rating, Pigweed ([10]; 31 g ai/ha): 80; Plant response rating, Foxtail, Giant ([12]; 31 g ai/ha): 0; Plant response rating, Kochia ([13]; 31 g ai/ha): 70; Plant response rating, Corn ([14]; 31 g ai/ha): 10; Plant response rating, Foxtail, Giant ([15]; 31 g ai/ha): 0; Plant response rating, Pigweed ([16]; 31 g ai/ha): 30; Plant response rating, Ryegrass, Italian ([18]; 31 g ai/ha): 0; Plant response rating, Kochia ([20]; 31 g ai/ha): 80"
N#CCCCOc1c(F)cccc1Oc1ncc(Cl)cn1 [Compound 24],30,20,0,0,0,10,20,0,0,90,0,30,60,0,0,40,0,0,0,80,"Plant response rating, Barnyardgrass ([2]; 500 g ai/ha): 70; Plant response rating, Blackgrass ([3]; 500 g ai/ha): 20; Plant response rating, Ragweed ([4]; 500 g ai/ha): 70; Plant response rating, Barnyardgrass ([5]; 500 g ai/ha): 50; Plant response rating, Ragweed ([6]; 500 g ai/ha): 50; Plant response rating, Galium ([7]; 500 g ai/ha): 80; Plant response rating, Wheat ([8]; 500 g ai/ha): 0; Plant response rating, Ryegrass, Italian ([9]; 500 g ai/ha): 0; Plant response rating, Pigweed ([10]; 500 g ai/ha): 100; Plant response rating, Foxtail, Giant ([12]; 500 g ai/ha): 100; Plant response rating, Kochia ([13]; 500 g ai/ha): 100; Plant response rating, Corn ([14]; 500 g ai/ha): 10; Plant response rating, Foxtail, Giant ([15]; 500 g ai/ha): 30; Plant response rating, Pigweed ([16]; 500 g ai/ha): 70; Plant response rating, Ryegrass, Italian ([18]; 500 g ai/ha): 20; Plant response rating, Kochia ([20]; 500 g ai/ha): 100"
